Test results as given in US20100003217A1, “Compounds and Pharmaceutical Compositions for the Treatment of Viral Infections” (priority 2008, published 2010).
Where “and” joins values, the source holds several entries; their conditions need not be identical. Equal entries are not always repeated.

Tests used:
[1] = Metabolite profile in rat urine; format: in vivo, male Sprague-Dawley rats; conditions: for % AD (percent of administered dose) / % HPLC (percent of HPLC peak area in the sample extract): group 1C (IV dose) pooled urine; for % of total urinary excretion / Total % AD: group 1C (IV dose) urine; for Total % AD: total of all collections
Method: Pooled urine samples were prepared for Groups 1C and 2C by mixing a fixed percent of the total volume for all four animals from the selected time points. For Group 1C, samples of the 1-, 2-, 6-, and 24-h collection intervals were pooled. For Group 2C, a pool of samples from all four animals was prepared for the 24 h collection intervals only. For 1-, 2-, and 6 h collection intervals, a urine sample of a single animal of Group 2A or 2B was used for analysis. All samples were brought to room temperature and vortexed briefly. The samples were diluted as necessary (2- to 20-fold) with appropriate aqueous mobile phase for the selected HPLC method. The pooled and diluted samples from the 24 h collection interval were centrifuged at 2040×g for 10 minutes. All other samples were analyzed without centrifugation. HPLC method 1 was used for HPLC profiling. Selected samples were analyzed by HPLC method 2 for comparison with the metabolite profile generated by microsomal and hepatocyte incubations (Examples 14 and 15) and with the metabolite profile of liver extracts.
Percent of the administered dose (% AD) for parent drug and each metabolite at each collection period=(% of the total radioactivity in the sample attributed to the metabolite)*(total radioactivity expressed as % of the administered dose, recovered during the corresponding collection period).
HPLC analyses of pooled urine samples of all time points were conducted for Group 1C. Metabolites R1, R2, R3, R4, R5, R6, R7 and R8 were characterized based on retention time.
For the PO dose group, a pooled urine sample from the 24-h collection time was analyzed. For 1-, 2-, and 6-h collection times, the majority of the samples had been used for radioanalysis. The remaining samples were insufficient for proportional pooling. Therefore, single animal samples of […] groups were used for HPLC profiling. Metabolites R^1, R^2, R^3, R^4, R^5, R^6, R^7 and R^8 were characterized based on retention time.
Table 50 contains data from single animal samples and pooled samples. To estimate overall distribution of urinary metabolites, it was assumed that the profile from a single animal is reflective of the overall average metabolite profile. Therefore, HPLC distribution data from single animals was used to calculate the percentage of administered dose excreted as various metabolites during the 1-, 2-, and 6-h collection intervals. Metabolites R1, R2, R3, R4, R5, R6, R7 and R8 were characterized based on retention time.

[2] = Rat plasma pharmacokinetics of total radioactivity after [^14C]-Compound 1; format: in vivo, male Sprague-Dawley rats; conditions: for Plasma total radioactivity concentration, Mean: group mean; for Plasma total radioactivity concentration: individual rats; for AUC0-24 of plasma total radioactivity: from average concentrations
Method: A preliminary rat metabolism study was conducted with radiolabeled Compound 1. The compound was labeled with [^14C] in the C-8 position of the guanine moiety. The objectives of the study were to determine, 1) the plasma pharmacokinetics of total radioactivity, 2) the time-course of total radioactivity and the amount of 2′-C-methyl guanosine-5′-TP in liver, 3) the major route of excretion, and 4) the metabolic profile in excreta, liver, and plasma.
Isotopically diluted [^14C]-Compound 1 was administered intravenously to male Sprague-Dawley rats at 50 mg/kg or by oral gavage at 100 mg/kg.
The plasma concentration-time data for total radioactivity was analyzed using Microsoft® Office Excel 2003 to obtain the area under the concentration-time curve (AUC). AUC0-24 (area under the concentration-time curve from 0 to 24 h after dosing) was calculated using the linear trapezoidal rule and nominal sampling times. For the IV dose group, concentration at time zero was extrapolated from the concentration data for the first two time points. The maximum (peak) plasma concentrations (Cmax) and the time to peak concentrations (tmax) were the observed values. Descriptive statistics were prepared in Excel.
Radioanalyses of plasma samples were conducted. The plasma concentration data for total radioactivity expressed as μg equivalents/mL are summarized below: […]

CC(C)(CO)C(=O)SCCOP(N)(=O)OC[C@H]1O[C@@H](n2cnc3c(=O)[nH]c(N)nc32)[C@](C)(O)[C@@H]1O (single isomer, unassigned; diastereomer 2) [Compd 3 Diastereomer 2]
% AD (percent of administered dose) ([1]; 1 h collection): 0.23 % AD
% HPLC (percent of HPLC peak area in the sample extract) ([1]; 1 h collection): 1.00%
% AD (percent of administered dose) ([1]; 2 h collection): 0.14 % AD
% HPLC (percent of HPLC peak area in the sample extract) ([1]; 2 h collection): 2.69%
% AD (percent of administered dose) ([1]; 6 h collection): 0.03 % AD
% HPLC (percent of HPLC peak area in the sample extract) ([1]; 6 h collection): 1.19%
% of total urinary excretion [1]: 0.84%
Total % AD [1]: 0.39 % AD

CC(C)(CO)C(=O)SCCOP(N)(=O)OC[C@H]1O[C@@H](n2cnc3c(=O)[nH]c(N)nc32)[C@](C)(O)[C@@H]1O (single isomer, unassigned; diastereomer 1) [Compd 3 Diastereomer 1]
% AD (percent of administered dose) ([1]; 1 h collection): 0.05 % AD
% HPLC (percent of HPLC peak area in the sample extract) ([1]; 1 h collection): 0.24%
% AD (percent of administered dose) ([1]; 2 h collection): 0.05 % AD
% HPLC (percent of HPLC peak area in the sample extract) ([1]; 2 h collection): 1.01%
% AD (percent of administered dose) ([1]; 6 h collection): 0.01 % AD
% HPLC (percent of HPLC peak area in the sample extract) ([1]; 6 h collection): 0.37%
% of total urinary excretion [1]: 0.25%
Total % AD [1]: 0.12 % AD

CC(C)(CO)C(=O)SCCOP(=O)(NCc1ccccc1)OC[C@H]1O[C@@H](n2cnc3c(=O)[nH]c(N)nc32)[C@](C)(O)[C@@H]1O (stereo partly shown) [[^14C] Compound 1]
Plasma total radioactivity concentration, Mean ([2]; IV 50 mg/kg, 0 h (pre-dose)): 0.000 μg Equivalents/mL
Plasma total radioactivity concentration, Mean ([2]; IV 50 mg/kg, 0.083 h): 43.692 μg Equivalents/mL
Plasma total radioactivity concentration, Mean ([2]; IV 50 mg/kg, 0.25 h): 9.195 μg Equivalents/mL
Plasma total radioactivity concentration, Mean ([2]; IV 50 mg/kg, 0.5 h): 4.311 μg Equivalents/mL
Plasma total radioactivity concentration, Mean ([2]; IV 50 mg/kg, 0.75 h): 1.835 μg Equivalents/mL
Plasma total radioactivity concentration, Mean ([2]; IV 50 mg/kg, 1 h): 1.399 μg Equivalents/mL
Plasma total radioactivity concentration, Mean ([2]; IV 50 mg/kg, 2 h): 2.175 μg Equivalents/mL
Plasma total radioactivity concentration, Mean ([2]; IV 50 mg/kg, 4 h): 0.799 μg Equivalents/mL
Plasma total radioactivity concentration, Mean ([2]; IV 50 mg/kg, 6 h): 2.652 μg Equivalents/mL
Plasma total radioactivity concentration, Mean ([2]; IV 50 mg/kg, 10 h): 0.605 μg Equivalents/mL
Plasma total radioactivity concentration, Mean ([2]; IV 50 mg/kg, 24 h): 0.570 μg Equivalents/mL
Plasma total radioactivity concentration ([2]; IV 50 mg/kg, Group 1A, 0.25 h, 50 mg/kg): 10.883 μg Equivalents/mL and 9.006 μg Equivalents/mL and 7.913 μg Equivalents/mL and 8.978 μg Equivalents/mL
Plasma total radioactivity concentration ([2]; IV 50 mg/kg, Group 1A, 1 h, 50 mg/kg): 1.371 μg Equivalents/mL and 1.358 μg Equivalents/mL and 1.600 μg Equivalents/mL and 1.267 μg Equivalents/mL
Plasma total radioactivity concentration ([2]; IV 50 mg/kg, Group 1A, 2 h, 50 mg/kg): 2.202 μg Equivalents/mL and 1.861 μg Equivalents/mL and 2.545 μg Equivalents/mL and 2.092 μg Equivalents/mL
Plasma total radioactivity concentration ([2]; IV 50 mg/kg, Group 1B, 0 h (pre-dose)): 0.000 μg Equivalents/mL
Plasma total radioactivity concentration ([2]; IV 50 mg/kg, Group 1B, 0.75 h, 50 mg/kg): 1.576 μg Equivalents/mL and 1.600 μg Equivalents/mL and 1.710 μg Equivalents/mL and 2.454 μg Equivalents/mL
Plasma total radioactivity concentration ([2]; IV 50 mg/kg, Group 1B, 4 h, 50 mg/kg): 0.755 μg Equivalents/mL and 0.713 μg Equivalents/mL and 0.938 μg Equivalents/mL and 0.790 μg Equivalents/mL
Plasma total radioactivity concentration ([2]; IV 50 mg/kg, Group 1B, 6 h, 50 mg/kg): 2.376 μg Equivalents/mL and 2.233 μg Equivalents/mL and 2.160 μg Equivalents/mL and 3.837 μg Equivalents/mL
Plasma total radioactivity concentration ([2]; IV 50 mg/kg, Group 1C, 0.083 h, 50 mg/kg): 50.653 μg Equivalents/mL and 45.178 μg Equivalents/mL and 35.246 μg Equivalents/mL and 37.600 μg Equivalents/mL
Plasma total radioactivity concentration ([2]; IV 50 mg/kg, Group 1C, 0.5 h, 50 mg/kg): 4.824 μg Equivalents/mL and 4.036 μg Equivalents/mL and 4.072 μg Equivalents/mL and 3.857 μg Equivalents/mL
Plasma total radioactivity concentration ([2]; IV 50 mg/kg, Group 1C, 10 h, 50 mg/kg): 0.566 μg Equivalents/mL and 0.675 μg Equivalents/mL and 0.573 μg Equivalents/mL and 0.562 μg Equivalents/mL
Plasma total radioactivity concentration ([2]; IV 50 mg/kg, Group 1C, 24 h, 50 mg/kg): 0.515 μg Equivalents/mL and 0.759 μg Equivalents/mL and 0.553 μg Equivalents/mL and 0.453 μg Equivalents/mL
AUC0-24 of plasma total radioactivity ([2]; IV 50 mg/kg): 36.000 μg equivalents · h/mL
Plasma total radioactivity concentration, Mean ([2]; PO 100 mg/kg, 0 h (pre-dose)): 0.000 μg Equivalents/mL
Plasma total radioactivity concentration, Mean ([2]; PO 100 mg/kg, 0.083 h): 0.283 μg Equivalents/mL
Plasma total radioactivity concentration, Mean ([2]; PO 100 mg/kg, 0.25 h): 0.346 μg Equivalents/mL
Plasma total radioactivity concentration, Mean ([2]; PO 100 mg/kg, 0.5 h): 0.316 μg Equivalents/mL
Plasma total radioactivity concentration, Mean ([2]; PO 100 mg/kg, 0.75 h): 0.315 μg Equivalents/mL
Plasma total radioactivity concentration, Mean ([2]; PO 100 mg/kg, 4 h): 0.625 μg Equivalents/mL
Plasma total radioactivity concentration, Mean ([2]; PO 100 mg/kg, 6 h): 1.331 μg Equivalents/mL
Plasma total radioactivity concentration, Mean ([2]; PO 100 mg/kg, 10 h): 0.622 μg Equivalents/mL
Plasma total radioactivity concentration, Mean ([2]; PO 100 mg/kg, 24 h): 0.399 μg Equivalents/mL
Plasma total radioactivity concentration ([2]; PO 100 mg/kg, Group 2A, 0.25 h, 100 mg/kg): 0.216 μg Equivalents/mL and 0.433 μg Equivalents/mL and 0.474 μg Equivalents/mL and 0.260 μg Equivalents/mL
Plasma total radioactivity concentration ([2]; PO 100 mg/kg, Group 2B, 0 h (pre-dose)): 0.000 μg Equivalents/mL
Plasma total radioactivity concentration ([2]; PO 100 mg/kg, Group 2B, 0.75 h, 100 mg/kg): 0.346 μg Equivalents/mL and 0.327 μg Equivalents/mL and 0.331 μg Equivalents/mL and 0.256 μg Equivalents/mL
Plasma total radioactivity concentration ([2]; PO 100 mg/kg, Group 2B, 4 h, 100 mg/kg): 0.578 μg Equivalents/mL and 0.618 μg Equivalents/mL and 0.675 μg Equivalents/mL and 0.630 μg Equivalents/mL
Plasma total radioactivity concentration ([2]; PO 100 mg/kg, Group 2B, 6 h, 100 mg/kg): 1.157 μg Equivalents/mL and 1.163 μg Equivalents/mL and 1.522 μg Equivalents/mL and 1.480 μg Equivalents/mL
Plasma total radioactivity concentration ([2]; PO 100 mg/kg, Group 2C, 0.083 h, 100 mg/kg): 0.228 μg Equivalents/mL (2×) and 0.394 μg Equivalents/mL and 0.596 μg Equivalents/mL
Plasma total radioactivity concentration ([2]; PO 100 mg/kg, Group 2C, 0.5 h, 100 mg/kg): 0.236 μg Equivalents/mL and 0.335 μg Equivalents/mL and 0.378 μg Equivalents/mL and 0.408 μg Equivalents/mL
Plasma total radioactivity concentration ([2]; PO 100 mg/kg, Group 2C, 10 h, 100 mg/kg): 0.806 μg Equivalents/mL and 0.555 μg Equivalents/mL and 0.506 μg Equivalents/mL and 0.511 μg Equivalents/mL
Plasma total radioactivity concentration ([2]; PO 100 mg/kg, Group 2C, 24 h, 100 mg/kg): 0.450 μg Equivalents/mL and 0.303 μg Equivalents/mL and 0.458 μg Equivalents/mL and 0.384 μg Equivalents/mL
AUC0-24 of plasma total radioactivity ([2]; PO 100 mg/kg): 15.445 μg equivalents · h/mL
